Experimental data reported in patent publication US8962530B2, “Inflammatory bowel disease therapies” (Regents of the University of Colorado, priority 2007, dated 2015).

How the values were obtained:
TNBS-induced colitis [1] = assay: Weight loss in TNBS-colitis model; assay type: in vivo; conditions: TNBS-colitis mice; for initial body weight loss: compared to vehicle-control treated TNBS-colitis animals; for average body weight (of initial body weight) at day 3: vehicle-treated approximately 92%
Excerpt: The effectiveness of compounds and methods of the present invention on intestinal barrier protection and treatment of inflammatory bowel disease (IBD) in TNBS (2,4,6-trinitrobenzene sulfonic acid)-induced colitis, an established animal model of inflammatory bowel disease, was examined. TNBS-induced colitis was induced in mice using a modification of techniques previously described. (See Morris et al (1989) Gastroenterology 96:795-803; Boirivant et al (1998) J Exp Med 188:1929-1939; Karhausen et al (2004) J Clin Invest 114:1098-1106.) Mice were shaved on the abdomen (causing total depletion of hair and microlesions) and were then sensitized to subsequent treatment by epicutaneous application of 1% TNBS (Sigma-Aldrich) in 100% ethanol on day minus 7. Seven days later, on day 0, animals were sedated with a 2.5% Tribromoethanol solution in phosphate-buffered saline (14 μl/g body weight), followed by intrarectal administration of a 2.5% TNBS solution in 50% ethanol (5 μl/g body weight). Administration of the 2.5% TNBS solution was carried out using an epidural catheter ([…] Plus Epidural Catheter, Arrow International), which was inserted approximately 6 cm ab ano followed by release of the TNBS solution. To ensure the continuance of the TNBS solution in the colon, mice were suspended in a vertical position for at least 5 minutes following administration. Vehicle control animals received a corresponding volume of 50% ethanol solution alone. Unless otherwise indicated, compounds of the invention were administered to animals intraperitoneally (i.p.) as a solution. Animals were dosed with compound (40 mg/kg/day or 20 mg/kg/day) on day minus 1, day 0, and day 1, or exclusively on day 0 and day 1, by i.p. injection. On day 0, TNBS treatment was performed on animals 4 hours after injection of compound. The effect of methods and compounds of the present invention on weight loss associated with inflammatory bowel disease was studied using an established animal model of colitis (described above in Example 1). Monitoring weight loss is a reliable method to assess TNBS-colitis severity in this animal model, as previously described. (See Neurath et al (2000) Int Rev Immunol 19:51-62.) Animals were administered Compound A (20 mg/kg or 40 mg/kg, i.p.) or vehicle control on day minus 1, day 0, and day 1. TNBS-colitis was induced in mice on day 0, as described above in Example 1. Body weight of the mice was monitored following induction of TNBS-colitis. […] Animal body weight was monitored each day for 3 days.

TNBS-induced colitis [2] = assay: Intestinal permeability, Texas Red labeled LPS, TNBS-colitis model; assay type: in vivo; conditions: TNBS-colitis mice; 60 mg/kg i.p.; labeled LPS gavage after 20 hours, serum four hours later; compared to vehicle control
Excerpt: The effectiveness of compounds and methods of the present invention on intestinal barrier protection and treatment of inflammatory bowel disease (IBD) in TNBS (2,4,6-trinitrobenzene sulfonic acid)-induced colitis, an established animal model of inflammatory bowel disease, was examined. TNBS-induced colitis was induced in mice using a modification of techniques previously described. (See Morris et al (1989) Gastroenterology 96:795-803; Boirivant et al (1998) J Exp Med 188:1929-1939; Karhausen et al (2004) J Clin Invest 114:1098-1106.) Mice were shaved on the abdomen (causing total depletion of hair and microlesions) and were then sensitized to subsequent treatment by epicutaneous application of 1% TNBS (Sigma-Aldrich) in 100% ethanol on day minus 7. Seven days later, on day 0, animals were sedated with a 2.5% Tribromoethanol solution in phosphate-buffered saline (14 μl/g body weight), followed by intrarectal administration of a 2.5% TNBS solution in 50% ethanol (5 μl/g body weight). Administration of the 2.5% TNBS solution was carried out using an epidural catheter ([…] Plus Epidural Catheter, Arrow International), which was inserted approximately 6 cm ab ano followed by release of the TNBS solution. […] Four hours later, changes in intestinal permeability were determined by measurement of serum Texas Red labeled LPS levels.

[3] = 20 mg/kg i.p. on day minus 1, day 0, day 1
[4] = 40 mg/kg i.p. on day minus 1, day 0, day 1

In the case of `O=C(O)CNC(=O)c1ncc2cc(Sc3ccccc3)ccc2c1O` [Compound A, [(4-Hydroxy-7-phenylsulfanyl-isoquinoline-3-carbonyl)-amino]-acetic acid], the “initial body weight loss” value (TNBS-induced colitis [1]; [3]) is reported as “reduction in the extent of initial body weight loss”, the “average body weight (of initial body weight) at day 3” value (TNBS-induced colitis [1]; [3]) is reported as “approximately 95%” and the “body weight gain (recovery from weight loss) by day 3” value (TNBS-induced colitis [1]; 20 mg/kg or 40 mg/kg i.p. on day minus 1, day 0, day 1, compared to vehicle/control-treated TNBS-colitis animals) is reported as “greater increase in body weight gain”. The “initial body weight loss” value (TNBS-induced colitis [1]; [4]) was “reduction in the extent of initial body weight loss”, the “average body weight (of initial body weight) at day 3” value (TNBS-induced colitis [1]; [4]) was ~97% and the “serum Texas Red labeled LPS levels (intestinal permeability)” value (TNBS-induced colitis [2]) was “lower levels of serum Texas Red labeled LPS”.
